Measured values: article PMC3877894, “Cytotoxic, Cytostatic and HIV-1 PR Inhibitory Activities of the Soft Coral Litophyton arboreum” (Marine Drugs, 2013)
Values joined by “and” are separate entries in the source; they are usually repeats but may differ in a detail not shown here. Identical values can stand only once. “Also recorded” adds a separate entry of the source. Like-named read-outs stand apart in the source and are kept apart here. Starred links: 1 amine or outer side, 2 acyl side, 3 side chain; linkers in the order of their positions; H or OH if unused. Positions of bridges follow the written chain, without caps; N, C: chain ends. Non-standard residues stand in square brackets, D forms with d. Residues, ends and D or L forms follow the SMILES beside them. Chains are numbered I, II in the order given. Actinocin(9to1) = Cc1c2oc3c(C)ccc(C(=O)[*:1])c3nc-2c(C(=O)[*:2])c(N)c1=O; NMeV = CN[C@H](C(=O)O)C(C)C; Sar = CNCC(=O)O

Experiments:
[1] = XTT cytotoxicity assay in HeLa cells; conditions: human
Procedure: (§1) HeLa, U937, and Vero cell lines were maintained in culture flasks containing Eagle’s Minimum Essential Medium supplemented with 10% heat-inactivated FBS and 1% antibiotics (100 U/mL penicillin, 100 μg/mL streptomycin, and 250 μg/mL fungizone). The cells were grown at 37 °C in a humidified incubator set at 5% CO2. Cells were subcultured after they formed a monolayer on the flask. The cells were detached by treating them with trypsin-EDTA (0.25% trypsin containing 0.01% EDTA) for 10 minutes and then by adding complete medium to inhibit the reaction. Cytotoxicity was measured by the XTT method using the Cell Proliferation Kit II. The method described by Zheng et al. was used to perform the assay. Cells were seeded (100 μL) in a 96-well microtiter plate (concentration 1 × 10^5 cells/mL). The plate was then incubated for 24 h at 37 °C and 5% CO2 to allow the cells to attach to the bottom of the wells. The compounds were each prepared to a stock solution of 20 mg/mL and added to the microtiter plate. Serial dilutions were made to range from a concentration of 100 μg/mL–0.7 μg/mL for each compound. The microtiter plate was incubated for a further 72 h. The control wells included vehicle-treated cells exposed to 2% DMSO and the positive control Actinomycin D, with concentrations ranging between 0.5 μg/mL and 0.002 μg/mL. After the 72 h incubation period, the XTT reagent (50 μL) was added to a final concentration of 0.3 mg/mL and the plate was then further incubated for another 2 h. After the incubation the absorbance of the color complex was read at 490 nm with a reference wavelength set at 690 nm. […] The IC50 values were reported at ±95% confidence intervals (±95% CI). The results were analyzed using the GraphPad Prism 4 program.

[2] = XTT cytotoxicity assay in Vero cells; conditions: African green monkey
Procedure: as §1

[3] = XTT cytotoxicity assay in U937 cells; conditions: human
Procedure: as §1

[4] = target: T1, HIV-1 PR (Human immunodeficiency virus type 1 group M subtype B, UniProt P04585); assay: HIV-1 protease direct enzyme assay (fluorogenic peptide substrate); assay type: biochemical; conditions: for inhibition at 100 µg/mL: screened at 100 µg/mL
T1 construct: HIV-1 protease enzyme was purchased from Bachem Bioscience Inc; purchased Bachem Bioscience Inc
Procedure: HIV-1 protease enzyme was purchased from Bachem Bioscience Inc. King of Prussia, PA, […] and the substrate (a synthetic peptide that contains a cleavage site Tyr-Pro for HIV protease as well as two covalently modiﬁed amino acids for the detection of cleavage). The assay was performed according to procedures by Lam et al., 2000 [39], in black 96 well assay plates obtained from Corning Incorporated, (Corning, New York, NY, USA). The fluorescence intensity was measured at an excitation wavelength of 355 nm and an emission wavelength of 460 nm using a synergy microplate spectrofluorometer (BioTek, Analytical & Diagnostic products, South Africa). […] DMSO was included in the enzyme control (1% DMSO). […] The percentage inhibition was calculated based on the formula: 100 − [(Test reagent RFU − background RFU)/(untreated control RFU − blank) × 100] where RFU = relative fluorescence units.
All the experiments were repeated three times in order to ensure the precision and accuracy of the data.

[5] = test system: HeLa cells; assay: Real-time cell electronic sensing (RT-CES, xCELLigence) in HeLa cells; assay type: cell-based; conditions: for inhibition of cell proliferation compared to untreated cells (RT-CES): HeLa, Figure 5
Procedure: The xCELLigence system was used according to the instructions of the supplier (Roche Diagnostics, Mannheim, Germany and ACEA Biosciences, San Diego, CA, USA). HeLa cell line, media, trypsin-EDTA, fetal bovine serum (FBS), phosphate buffer saline (PBS), and antibiotics were supplied by […] Biological (Pty) Ltd. (Modderfontein, Johannesburg, South Africa). The electronic impedance of sensor electrodes that connect the E plate to the instrument is measured to allow monitoring and detection of physiological changes of the cells on the electrodes. The impedance measured between electrodes in an individual well depends on electrode geometry, ion concentration in the well and whether or not cells are attached to the electrodes. In the absence of cells, electrode impedance is mainly determined by the ion environment, both at the electrode/solution interface, and in the bulk solution. In the presence of cells, cells attached to the electrode sensor surfaces will act as insulators and thereby alter the local ion environment at the electrode/solution interface, leading to an increase in impedance. Thus, the more cells that are growing on the electrodes, the larger the value of electrode impedance. This assay has been described for the measurement of cytotoxicity and can be used to determine other cellular parameters such as cell proliferation, cytotoxicity start time, cell recovery, and cell response patterns in real time. HeLa cells were grown and expanded in tissue-culture flasks. After reaching ~75% confluence, the HeLa were washed with PBS, and afterwards detached from the flasks by a brief treatment with trypsin. Subsequently, 50 μL of cell culture media at room temperature was added into each well of E-plate. After this the plate was connected to the system and checked in the cell culture incubator for proper electrical-contacts and the background impedance was measured over 24 h. […] One-hundred microliters of each cell suspension was added to the 50 μL medium containing wells on the E-plate, in order to determine the optimum cell concentration. After 30 min incubation at room temperature, E-plates were placed into the cell culture incubator. Finally, adhesion, growth, and proliferation of the cells was monitored every 30 min for a period of up to 18 h via the incorporated sensor electrode arrays of the E-Plate. The electrical impedance was measured by the RTCA-integrated software of the xCELLigence system as a dimensionless parameter termed Cell index (CI). […] All experiments were run for 72 h after adding the compounds. All calculations were obtained using the RTCA-integrated software of the xCELLigence system.

[6] = test system: HeLa cells; assay: XTT cytotoxicity assay in HeLa cells; conditions: for IC50: read-out: Cytotoxicity IC50 HeLa, XTT, 72 h incubation
Procedure: as §1

[7] = test system: Vero cell line; assay: XTT cytotoxicity assay in Vero cells; conditions: at 4.85 µM (HIV-1 PR IC50 concentration)
Procedure: as §1

[8] = test system: U937 cells; assay: XTT cytotoxicity assay in U937 cells; conditions: at 4.85 µM (HIV-1 PR IC50 concentration)
Procedure: as §1

[9] = test system: KB; parameters: method as in PMID 9722490; conditions: cited from earlier work
[10] = test system: human prostate cancer cell line LNCaP; conditions: cited from earlier work
[11] = test system: A549 cancer cell lines; conditions: cited from earlier work
[12] = test system: HT-29; conditions: cited from earlier work
[13] = test system: P-388; conditions: cited from earlier work
[14] = HeLa cells, Cytotoxicity IC50 HeLa, XTT
[15] = HeLa cells, Cytotoxicity IC50 HeLa, XTT, 72 h incubation

Cc1c2oc3c(C)ccc(C(=O)N[C@@H]4C(=O)N[C@H](C(C)C)C(=O)N5CCC[C@H]5C(=O)N(C)CC(=O)N(C)[C@@H](C(C)C)C(=O)O[C@@H]4C)c3nc-2c(C(=O)N[C@@H]2C(=O)N[C@H](C(C)C)C(=O)N3CCC[C@H]3C(=O)N(C)CC(=O)N(C)[C@@H](C(C)C)C(=O)O[C@@H]2C)c(N)c1=O [Actinomycin D, reference compound] (I: T[dV]P[Sar][NMeV] / II: T[dV]P[Sar][NMeV]; ester I:1-I:C, II:1-II:C; linker I:N-II:N via Actinocin(9to1))
IC50 at 72 h [1]: 5.1 ± 0.1 µM
IC50 at 72 h [2]: 8.8 ± 2.5 µM
IC50 at 72 h [3]: 1.9 ± 0.865 µM

CC1=CCCC(C)=CCC(O)(C(C)C)CCC(C)=CCC1 (centres unmarked) [Compound 1, sarcophytol M]
IC50 at 72 h [1, 14]: 8.1 µg/mL
IC50 at 72 h [1, 15]: 27.5 ± 0.2 µM
IC50 at 72 h ([2]; Vero cells): 22 ± 0.2 µM
IC50 at 72 h ([3]; U937 cells): 31.7 ± 3.2 µM
IC50 ([4]; read-out: IC50 HIV-1 PR): 15.7 ± 0.1 µM
inhibition at 100 µg/mL [4]: 100%

C=C1CCC(C(C)C)=CC2C1CCC2(C)O (centres unmarked) [Compound 2, alismol]
IC50 at 72 h [1, 15]: 30 ± 17.2 µM
IC50 at 72 h ([2]; Vero cells): 49 µM
IC50 ([4]; read-out: IC50 HIV-1 PR): 7.2 ± 0.7 µM
inhibition at 100 µg/mL [4]: 96.2%
RT-CES effect in HeLa ([5]; 16 μg/mL (Figure 5)): cytostatic behavior
RT-CES (xCELLigence) effect in HeLa ([5]; 30 µg/mL): cytostatic effect
inhibition of cell proliferation compared to untreated cells (RT-CES) [5]: 50%

C=C(CC[C@@H](C)[C@H]1CCC2C3CC=C4C[C@@H](O)CC[C@]4(C)C3CC[C@@]21C)C(C)C (stereo partly drawn) [Compound 3, 24-methylcholesta-5,24(28)-diene-3β-ol]
IC50 at 72 h [1, 15]: 48 ± 8.7 µM
IC50 at 72 h ([2]; Vero cells): 100 ± 1.2 µM

CO[C@]1(C)CCC(C(C)C)=C[C@H]2[C@H]1CC[C@]2(C)O [Compound 4, 10-O-methyl alismoxide]
IC50 at 72 h [1, 15]: 38 ± 0.7 µM
IC50 at 72 h ([2]; Vero cells): 49.8 ± 0.5 µM
IC50 at 72 h ([3]; U937 cells): 50 ± 0.23 µM

CC(C)C1=C[C@H]2[C@@H](CC[C@]2(C)O)[C@](C)(O)CC1 [Compound 5, alismoxide]
IC50 at 72 h [1, 15]: > 100 µM
IC50 at 72 h ([2]; Vero cells): > 100 µM
IC50 at 72 h ([3]; U937 cells): > 100 µM
RT-CES effect in HeLa ([5]; 60 μg/mL (Figure 5)): cytostatic behavior
RT-CES (xCELLigence) effect in HeLa ([5]; 100 µg/mL): cytostatic effect
inhibition of cell proliferation compared to untreated cells (RT-CES) [5]: 50%

CCCCCCCCCCCCCCCCOC[C@@H](O)CO [Compound 6, (S)-chimyl alcohol]
IC50 at 72 h [1, 15]: 23.4 ± 5.8 µM
IC50 at 72 h ([2]; Vero cells): 60 ± 1.14 µM
IC50 ([4]; read-out: IC50 HIV-1 PR): 26.6 ± 2.6 µM
inhibition at 100 µg/mL [4]: 100%

C=C(CCC(C)C1CCC2C3C(OC(C)=O)C=C4CC(O)CCC4(CO)C3CCC12C)C(C)C (stereo not drawn) [Compound 7, 7β-acetoxy-24-methylcholesta-5-24(28)-diene-3,19-diol]
CC50 at 72 h ([1]; HeLa cells): 4.3 ± 0.75 µM
IC50 at 72 h [1, 14]: 4.3 µg/mL
IC50 at 72 h [1, 15]: 4.3 µM
cell death in HeLa ([6]; at 4.85 µM (HIV-1 PR IC50 concentration)): 50%
IC50 [6]: 5.3 ± 0.6 µM
IC50 at 72 h ([2]; Vero cells): 31.3 ± 14 µM
effect in Vero (normal cells) [7]: no effect
IC50 at 72 h [3]: 7.8 µg/mL and 10.6 µM
cell death in U937 [8]: 20%
IC50 [4]: 4.85 ± 0.18 µM
inhibition at 100 µg/mL [4]: 71.5%
RT-CES response in HeLa ([5]; 2.5 µg/mL): dose dependent cytostatic response; also recorded: cytostatic effects
RT-CES response in HeLa ([5]; 10 and 5 µg/mL): dose dependent cytotoxic response; also recorded: dose dependent cytotoxic tendency
RT-CES cytotoxicity profile in HeLa ([5]; tested at IC50s obtained by XTT): confirmed their cytotoxic effects; also recorded: more toxic than the positive control
Cytotoxicity KB [9]: 0.38 µg/mL
Cytotoxicity IC50 LNCaP [10]: 15.5 µg/mL
Cytotoxicity A549 [11]: 0.81 µg/mL
Cytotoxicity HT-29 [12]: 0.87 µg/mL
Cytotoxicity P-388 [13]: 0.42 µg/mL

CCCCCCCCCCCCCC=CCCC=CC(O)C(CO)NC(=O)CCCCCCCCCCC (stereo not drawn) [Compound 8, erythro-N-dodecanoyl-docosasphinga-(4E,8E)-dienine]
IC50 at 72 h [1, 15]: 71 µM
IC50 [6]: 38.2 ± 0.7 µM
IC50 at 72 h ([2]; Vero cells): > 100 µM
IC50 at 72 h ([3]; U937 cells): > 100 µM
IC50 ([4]; read-out: IC50 HIV-1 PR): 4.8 ± 0.92 µM
inhibition at 100 µg/mL [4]: 100%
RT-CES (xCELLigence) effect in HeLa ([5]; 100 µg/mL): only affected at long incubation times; also recorded: low level cytotoxicity

C=C(CC[C@@H](C)[C@H]1CCC2C3C(CC[C@@]21C)[C@@]1(CO)CC[C@H](O)CC1=C[C@@H]3O)C(C)C (stereo partly drawn) [Compound 9, 24-methylcholesta-5,24(28)-diene-3β,7β,19-triol]
IC50 at 72 h ([1]; Cytotoxicity IC50 HeLa): 3.4 µg/mL and 8 µM
IC50 at 72 h [2]: 11.4 ± 0.04 µM
IC50 at 72 h [3]: 16.4 ± 1.25 µM
Cytotoxicity KB [9]: 0.58 µg/mL
Cytotoxicity IC50 LNCaP [10]: 4.9 µg/mL
Cytotoxicity A549 [11]: 0.69 µg/mL
Cytotoxicity HT-29 [12]: 0.72 µg/mL
Cytotoxicity P-388 [13]: 0.24 µg/mL
